Data as given in ChEMBL document CHEMBL1135276, “Novel estimation of lipophilic behaviour of polychlorinated biphenyls” (Bioorg Med Chem Lett, 2002).

Experiment: Partition coefficient (logP)
Conditions: octanol/water

| Compound | logP |
| --- | --- |
| Clc1ccccc1-c1ccccc1Cl | 4.73 |
| Clc1ccc(Cl)c(-c2cc(Cl)c(Cl)cc2Cl)c1 | 6.49 |
| Clc1ccc(-c2ccc(Cl)cc2)cc1 | 5.58 |
| Clc1ccc(-c2c(Cl)cc(Cl)c(Cl)c2Cl)c(Cl)c1Cl | 6.99 |
| Clc1cc(Cl)c(-c2cc(Cl)c(Cl)cc2Cl)cc1Cl [2,2',4,4',5,5'-HEXACHLOROBIPHENYL] | 6.8 |
| Clc1cc(-c2cc(Cl)c(Cl)c(Cl)c2)cc(Cl)c1Cl | 7.55 |
| Clc1cc(Cl)c(Cl)c(-c2c(Cl)c(Cl)cc(Cl)c2Cl)c1Cl | 7.15 |
| Clc1c(Cl)c(Cl)c(-c2ccccc2)c(Cl)c1Cl | 6.52 |
| Clc1ccc(Cl)c(-c2ccccc2Cl)c1 | 5.6 |
